The target in this test is T1, Chk2 (Homo sapiens, UniProt O96017).
T1 construct: made in house; host or cells: E. coli BL21 Star (Invitrogen)
As to the kind of experiment: Chk2 inhibitor IMAP assay (high-throughput Chk2 screening assay). The format is biochemical. To be noted: IMAP fluorescence polarization assay, 10 μM ATP. Here is the method: Compounds set forth in Table 1 were tested in the Chk2 inhibitor IMAP assay described herein in Example 6.84. […] The letters given for the Chk2 EC50 values in Table 1 represent the following ranges: A=<100 nM; B=100-300 nM; C=300-1000 nM; D=1-10 μM; and E>10 μM.
Compounds can be screened for Chk2 inhibitory activity using a high-throughput screening assay based in the immobilized metal ion affinity-based fluorescence polarization (IMAP) assay developed by Molecular Devices. This assay is based on the high affinity binding of phosphate by immobilized metal (MIII) coordination complexes on nanoparticles. A fluorescein-labeled peptide substrate is used as the substrate for the kinase activity of Chk2 in the assay. The IMAP binding reagent stops the kinase reaction. The binding of the binding reagent results in a change in the rate of molecular motion of the peptide and causes an increase in the fluorescence polarization value observed for the fluorescein label attached to the end of the peptide. Thus, inhibition of Chk2 would result in a decrease in fluorescence polarization compared to control.
A specific protocol for screening Compounds for Chk2 inhibitory activity follows.
A Compound is supplied at 1 mM in 0.5 μl DMSO on 384 well plates (such as Greiner or Corning). After thawing, 5 μl DMSO is added to the drug plate. The drug plate is then incubated for 10 minutes to solubilize the Compound. An additional 19.5 μl of reaction buffer (10× stock prepared using 100 mM Tris-HCl, 100 mM MgCl2, 1% BSA, pH 7.2, stored at 4° C.)+1 mM DDT is added to bring the Compound to 4× final concentration. A positive control is also prepared at 4× final concentration. The following control wells are used: less enzyme control (all reagents except enzyme; 5 μl/well), less Compound control (all reagents except Compound; 5 μl/well), positive control (all reagents plus staurosporine at a final concentration of 5 μM; 5 μl/well).
Reagents are then added in the following order to give the following final concentration: 2.5 μl ATP/Chk2tide (Molecular Devices) (10 μM/100 nM final concentration), 1.25 μl Compound (5 μM final concentration inf 5.5% DMSO), and 1.25 μl Chk2 (1:500, 2.4 μg/mL final concentration).
Plates are covered and incubated at room temperature for 60 minutes.
IMAP binding reagent (Molecular Devices) is diluted 1:400 into binding buffer (Molecular Devices). 15 μl of this solution is then added to all wells and the plates are covered and incubated for 30 minutes.
Plates are read using a Tecan Ultra under the fluorescence polarization mode. Gain is set to the less enzyme and less Compound wells for each plate. Excitation 485 nm, emmission 535 nm, Z position 12519 and flashes 5 are used as settings. Raw data from the Tecan reader is imported into an access database for analysis.

Among the data in patent US8765802B2, “Kinase inhibitors, compositions thereof, and methods of use therewith” (Provid Pharmaceuticals, Inc., priority 2007, dated 2014) are EC50 values, retold here.

T1 sequence (O96017 whole entry): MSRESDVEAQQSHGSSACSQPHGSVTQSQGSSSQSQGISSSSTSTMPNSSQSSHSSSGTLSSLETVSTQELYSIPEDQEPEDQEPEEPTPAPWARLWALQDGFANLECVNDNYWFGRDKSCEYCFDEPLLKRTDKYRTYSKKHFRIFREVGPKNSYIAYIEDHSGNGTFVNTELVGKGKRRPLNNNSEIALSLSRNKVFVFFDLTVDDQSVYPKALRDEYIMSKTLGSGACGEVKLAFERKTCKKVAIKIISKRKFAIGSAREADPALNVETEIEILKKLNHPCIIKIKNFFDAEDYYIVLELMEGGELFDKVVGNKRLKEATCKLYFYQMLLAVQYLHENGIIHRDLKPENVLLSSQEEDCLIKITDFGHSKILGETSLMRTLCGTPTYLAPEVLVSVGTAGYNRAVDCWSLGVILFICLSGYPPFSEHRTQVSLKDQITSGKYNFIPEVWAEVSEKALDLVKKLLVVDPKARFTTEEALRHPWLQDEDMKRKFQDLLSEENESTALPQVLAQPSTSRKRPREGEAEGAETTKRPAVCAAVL

For the compound `C/C(=N\NC(=N)N)c1ccc(NC(=O)c2cc3cccc(/C(C)=N/NC(=N)N)c3[nH]2)cc1` [Compound 68], the EC50 lay within 1000 to 10000 nM. Then `C/C(=N\NC(=N)N)c1ccc(NC(=O)c2cc3cc(F)ccc3[nH]2)cc1` [Compound 87], with 1000 to 10000 nM; and `C/C(=N\NC(=N)N)c1ccc2[nH]c(C(=O)Nc3ccc(N4CCNCC4)cc3)cc2c1` [Compound 49], with 100 to 300 nM. Then `C/C(=N\NC(=N)N)c1ccc(NC(=O)c2cc3ccc(C)cc3[nH]2)cc1` [Compound 93], with 300 to 1000 nM; and `COc1ccc2[nH]c(C(=O)Nc3ccc(/C(C)=N/NC4=NCCN4)cc3)cc2c1` [Compound 19], with 100 to 300 nM; and `C/C(=N\NC(=N)N)c1ccc(NC(=O)c2cc3cccc(N)c3[nH]2)cc1` [Compound 77], with 1000 to 10000 nM. Take `C/C(=N\NC(=N)N)c1ccc(NC(=O)c2c[nH]c3ccccc23)cc1` [Compound 2]: the EC50 lay in the range of 1000 to 10000 nM.

`COc1cccc2cc(C(=O)Nc3ccc(C(C)=NNC(=N)N)cc3)[nH]c12` [Compound 75] yielded an EC50 of 1000 to 10000 nM. The result for `C/C(=N\NC(=N)N)c1ccc(NC(=O)c2cc3ccccc3o2)cc1` [Compound 52] reads 1000 to 10000 nM; that for `COc1cc2nc(NC(=O)c3ccc(/C(C)=N\NC(=N)N)cc3)sc2cc1OC` [Compound 45], 1000 to 10000 nM; that for `C/C(=N\NC(=N)N)c1ccc(NC(=O)c2cc3cccc(C(F)(F)F)c3[nH]2)cc1` [Compound 85], greater than 10000 nM. The result for `CSC(=N)N/N=C(\C)c1ccc(NC(=O)Nc2ccc(/C(C)=N/NC(=N)SC)cc2)cc1` [Compound 63] reads 1000 to 10000 nM; that for `C/C(=N\NC(=N)N)c1ccc2[nH]c(C(=O)Nc3ccc4cnccc4c3)cc2c1` [Compound 126], less than 100 nM.

Take `C/C(=N\NC(=N)N)c1ccc(NC(=O)Nc2ccc(C#N)cc2)cc1` [Compound 20]: the EC50 is less than 100 nM. The result for `C/C(=N\NC(=N)N)c1ccc(NC(=O)Nc2ccc(Br)cc2)cc1` [Compound 37] reads 100 to 300 nM; that for `C/C(=N/NC(=N)N)c1ccc(NC(=O)Nc2ccc(NC(=O)/C(C)=N/NC(=N)N)cc2)cc1` [Compound 12], 300 to 1000 nM; that for `CC/C(=N\NC(=N)N)c1ccc(NC(=O)c2ccco2)cc1` [Compound 53], 1000 to 10000 nM. Regarding `C/C(=N\NC(=N)N)c1ccc(NC(=O)c2cc3ccccc3[nH]2)cc1` [Compound 7], the EC50 lay within 300 to 1000 nM. The result for `C/C(=N\NC(=N)N)c1ccc(NC(=O)c2cc3cc(C)ccc3[nH]2)cc1` [Compound 9] reads 100 to 300 nM. The result for `C/C(=N\NC(=N)N)c1ccc(NC(=O)c2cc3cc(/C(C)=N/NC(=N)N)ccc3[nH]2)cc1` [Compound 17] reads less than 100 nM; that for `CC(=NNC(N)=NO)c1ccc(NC(=O)Nc2ccc(C(C)=NNC(N)=NO)cc2)cc1` [Compound 116], less than 100 nM. Then `C/C(=N\NC(=N)N)c1ccc(NC(=O)Nc2ccc(I)cc2)cc1` [Compound 38], with 300 to 1000 nM. `C/C(=N/NC(=N)N)c1ccc(NC(=O)c2cc3cc(OCc4ccccc4)ccc3[nH]2)cc1` [Compound 34] came in with an EC50 of 1000 to 10000 nM.

Compound `C/C(=N\NC(=N)N)c1ccc(NC(=O)c2cc3ccc(S(C)(=O)=O)cc3[nH]2)cc1` [Compound 89] had an EC50 of 300 to 1000 nM.

`CCCC(=NNC(=N)N)c1ccc2[nH]c(C(=O)Nc3ccc4cc[nH]c4c3)cc2c1` (single isomer, unassigned) [Compound 113] came in with an EC50 of 300 to 1000 nM. The result for `C/C(=N\NC(=N)N)c1ccc(NC(=O)Nc2ccc(/C(C)=N/NC3=NCCN3)cc2)cc1` [Compound 16] reads less than 100 nM. Regarding `C/C(=N\N/C(=N\N)NN)c1ccc(NC(=O)Nc2ccc(/C(C)=N/N/C(=N\N)NN)cc2)cc1` [Compound 65], the EC50 is 100 to 300 nM. Then `CC(=NNC(N)=NO)c1ccc(NC(=O)c2cc3cccc([N+](=O)[O-])c3[nH]2)cc1` [Compound 118], with less than 100 nM. `C/C(=N\NC1=NCCN1)c1ccc(NC(=O)Nc2ccc(/C(C)=N/NC3=NCCN3)cc2)cc1` [Compound 15]: the EC50 is less than 100 nM. For `CC(=O)c1ccc(NC(=O)c2cc3cc(/C(C)=N/NC(=N)N)ccc3[nH]2)cc1` [Compound 72], the EC50 is 300 to 1000 nM. The result for `C/C(=N\NC(=N)N)c1ccc(NC(=O)c2cc3ccccc3o2)cc1` [Compound 8] reads 300 to 1000 nM.

Turning to `CC(=NNC(=N)N)c1ccc(NC(=O)c2cc3cc([N+](=O)[O-])ccc3[nH]2)cc1` [Compound 35], the EC50 was greater than 10000 nM.

For `COc1cc2nc(NC(=O)c3ccc(/C(C)=N/NC(=N)N)cc3)sc2cc1OC` [Compound 46], the EC50 lay in the range of 1000 to 10000 nM. The result for `C/C(=N\NC(=N)N)c1ccc(NC(=O)c2cc3cc(C(N)=O)ccc3[nH]2)cc1` [Compound 27] reads 100 to 300 nM; that for `COc1ccc2[nH]c(C(=O)Nc3ccc(C(C)=NNC(N)=NO)cc3)cc2c1` [Compound 117], less than 100 nM; that for `C/C(=N\NC1=NCCN1)c1ccc(NC(=O)c2cc3cccc([N+](=O)[O-])c3[nH]2)cc1` [Compound 22], less than 100 nM. For the compound `C/C(=N\NC(=N)N)c1ccc(NC(=O)c2cn3ccccc3n2)cc1` [Compound 106], the EC50 was in the range of 1000 to 10000 nM. The result for `C/C(=N\NC(=N)N)c1ccc(NC(=O)c2cc3cc(O)ccc3[nH]2)cc1` [Compound 11] reads 300 to 1000 nM; that for `COc1ccc2[nH]nc(C(=O)Nc3ccc(/C(C)=N/NC(=N)N)cc3)c2c1` [Compound 42], greater than 10000 nM.

As to `COc1ccc2nc(NC(=O)c3ccc(/C(C)=N/NC(=N)N)cc3)sc2c1` [Compound 43], the EC50 fell in the range of 1000 to 10000 nM. Then `C/C(=N\NC(=N)N)c1ccc(NC(=O)c2cc3cccc([N+](=O)[O-])c3[nH]2)cc1C` [Compound 84], with 1000 to 10000 nM; and `COc1cccc2sc(NC(=O)c3ccc(/C(C)=N\NC(=N)N)cc3)nc12` [Compound 44], with greater than 10000 nM. Then `N=C(N)N/N=C1\CCCc2cc(NC(=O)c3cc4cccc([N+](=O)[O-])c4[nH]3)ccc21` [Compound 86], with less than 100 nM; and `CC(C)CC(=NNC(=N)N)c1ccc2[nH]c(C(=O)Nc3ccc4cc[nH]c4c3)cc2c1` (single isomer, unassigned) [Compound 124], with 1000 to 10000 nM. Then `COc1ccc2[nH]nc(C(=O)Nc3ccc(/C(C)=N/NC(=N)N)cc3)c2c1` [Compound 41], with 1000 to 10000 nM; and `C/C(=N/NC(=N)N)c1ccc2[nH]c(C(=O)Nc3ccc(-n4ccnc4)cc3)cc2c1` [Compound 127], with 100 to 300 nM; and `C/C(=N\NC(=N)N)c1ccc(NC(=O)c2cc3c(ccc4ccccc43)[nH]2)cc1` [Compound 107], with 1000 to 10000 nM. Turning to `CC(=O)c1ccc(NC(=O)Nc2ccc(/C(C)=N/NC(=N)N)cc2)cc1` [Compound 36], the EC50 was in the range of 100 to 300 nM. The result for `C/C(=N\NC(=N)N)c1ccc2[nH]c(C(=O)Nc3cccc4[nH]ccc34)cc2c1` [Compound 108] reads 1000 to 10000 nM; that for `N=C(N)N/N=C1\CCc2cc(NC(=O)c3cc4cccc([N+](=O)[O-])c4[nH]3)ccc21` [Compound 96], 1000 to 10000 nM. Then `C/C(=N\NC(=N)N)c1ccc2[nH]c(C(=O)Nc3ccc(N)cc3)cc2c1` [Compound 114], with 1000 to 10000 nM; and `C/C(=N\NC(=N)N)c1ccc(NC(=O)Nc2ccc(/C(=N/NC(=N)N)c3ccccc3)cc2)cc1` [Compound 55], with greater than 10000 nM; and `C/C(=N/NC(=N)N)c1ccc(NC(=O)c2[nH]c3ccccc3c2Br)cc1` [Compound 30], with 300 to 1000 nM. The result for `C/C(=N/NC(=N)N)c1ccc(NC(=O)c2cc3cc(OC(F)(F)F)ccc3[nH]2)cc1` [Compound 33] reads 1000 to 10000 nM. The compound `COc1cc(OC)c2cc(C(=O)Nc3ccc(/C(C)=N/NC(=N)N)cc3)[nH]c2c1` [Compound 40] had an EC50 of 1000 to 10000 nM. The result for `C/C(=N\NC(=N)N)c1ccc(NC(=O)c2ccc(-c3cnc(N)nc3)cc2)cc1` [Compound 47] reads 300 to 1000 nM; that for `COc1ccc2nc(C(=O)Nc3ccc(/C(C)=N/NC(=N)N)cc3)sc2c1` [Compound 82], 1000 to 10000 nM.

Turning to `COc1cc2cc(C(=O)Nc3ccc(/C(C)=N/NC(=N)N)cc3)[nH]c2cc1N` [Compound 99], the EC50 was in the range of 300 to 1000 nM. Then `C/C(=N\NC(=N)N)c1ccc2[nH]c(C(=O)Nc3ccc4[nH]ccc4c3)cc2c1` [Compound 80], with 300 to 1000 nM.

A word on the EC50: it is the midpoint of the concentration-response curve. Read a high EC50 as a less potent agent.
